# Assay results as given in US8895579B2, “Heterotricyclic AMPA receptor antagonists for treatment of epilepsy, pain, and other neurological disorders and diseases” (Northwestern University, priority 2010, dated 2014).
# “Also recorded” adds a separate entry of the source.
# How the values were obtained:
# [1] = tested on: AMPA receptors; conditions: cited from earlier work; for concentration range inhibiting AMPA receptors: Bleakman et al., 1996
# [2] = tested on: mice; conditions: Ikoma et al., 2008; Oikawa et al., 2009 and unpublished observations; cited from earlier work
# [3] = tested on: AMPA receptor-mediated EPSCs in primary hippocampal neurons; assay: AMPA receptor EPSC charge transfer during spontaneous synaptic bursts, whole-cell voltage clamp, cultured hippocampal neurons; type: cell-based; conditions: 30 μM; for charge transfer during bursts of AMPA receptor-mediated synaptic events as a percent of the charge transfer during the control period: voltage clamped at −70 mV
# Description: (§1) Experiments involving primary hippocampal neurons were carried out as described previously (Vivithanaporn et al., 2007). Dissociated neurons were cultured from E18 prenatal hippocampi and were used for analysis from between 17 and 28 days in vitro. The extracellular solution was the same as used for recombinant receptor analysis, while the internal solution for voltage clamp recordings contained (in mM) 95 CsF, 25 CsCl, 10 Cs-HEPES, 10 EGTA, 2 NaCl, 2 Mg-ATP, 10 QX-314, 5 TEA. and 5 4-AP (pH 7.3) and the internal solution for current clamp recordings contained (in mM) 120 KMeSO4, 5 KCl, 5 NaCl, 1 MgCl2, 11 Na-HEPES, 10 phosphocreatine, 4 Na-ATP, and 0.3 Na-GTP (pH 7.0). Borosilicate patch electrodes were pulled and fire polished to 3-5 MΩ resistance. Both whole cell current clamp and voltage clamp recordings were performed using an Axopatch 200B amplifier (MDS, Sunnyvale, Calif.) and filtered at 20 kHz. Gigaohm seals were established in voltage clamp mode and, after membrane rupture, the recordings were carried out either in voltage clamp (clamped at Vm=−70 mV) with a […] series resistance, which was compensated to ˜60%, or in current clamp mode ([…]) with the bridge balance was corrected and pipette resistance neutralized. In vitro status epilepticus (SE) was induced as described previously (Deshpande et al., 2007; Pal et al., 1999) and action potentials were recorded in current clamp mode. Briefly for in vitro SE, magnesium-containing external solution was exchanged for external solution without magnesium and supplemented with 2 μM glycine. This solution exchange produced a period of rapid depolarization and increased AP firing, followed by a period of channel inactivation and reduced AP firing. After channel inactivation, neurons characteristically would hyperpolarize to hold at a membrane voltage (Vm) which was depolarized relative to control Vm, with an increase in AP firing frequency. […] External solutions were bath-applied at a flow rate of 1.5-2 ml/minute. After recording a basal control period, IKM compounds were applied for five minutes (10 minutes for in vitro SE experiments) and changes in excitatory post-synaptic current (EPSC) charge transfer or action potential (AP) frequency were analyzed during the last two minutes of IKM application.
# We first measured the actions of the IKM compounds on the charge transfer during spontaneously occurring, polysynaptic bursts of AMPA receptor excitatory post-synaptic currents (EPSCs) in cultured hippocampal neurons (recorded in the presence of bicuculline methiodide and picrotoxin to inhibit GABAA receptors and D-APV to inhibit NMDA receptors). […] IKM-159 had the greatest inhibitory effect at a fixed concentration of 30 μM, producing a reduction in charge transfer of 65±5% (n=6, p<0.01). […] Despite the polar chemical nature of the compounds, recoveries to basal EPSC charge transfers were minimal.
# [4] = biological target: T1, recombinant homomeric GluA4 AMPA receptor (Rattus norvegicus, UniProt P19493); assay: Whole-cell patch clamp of recombinant GluA4 receptors in HEK293-T/17 cells; type: cell-based; conditions: for remaining activity at 30 µM: HEK293T/17, read-out: GluA4 peak current as percent of control amplitude; for inhibition at 30 µM: HEK293T/17, read-out: reduction from control GluA4 peak glutamate current amplitude (percent inhibition)
# T1 construct: expressed in transfected cells; host or cells: HEK293-T/17 (CRL-11268)
# T1 sequence (P19493 21-902 isoform P19493-2 limits assumed): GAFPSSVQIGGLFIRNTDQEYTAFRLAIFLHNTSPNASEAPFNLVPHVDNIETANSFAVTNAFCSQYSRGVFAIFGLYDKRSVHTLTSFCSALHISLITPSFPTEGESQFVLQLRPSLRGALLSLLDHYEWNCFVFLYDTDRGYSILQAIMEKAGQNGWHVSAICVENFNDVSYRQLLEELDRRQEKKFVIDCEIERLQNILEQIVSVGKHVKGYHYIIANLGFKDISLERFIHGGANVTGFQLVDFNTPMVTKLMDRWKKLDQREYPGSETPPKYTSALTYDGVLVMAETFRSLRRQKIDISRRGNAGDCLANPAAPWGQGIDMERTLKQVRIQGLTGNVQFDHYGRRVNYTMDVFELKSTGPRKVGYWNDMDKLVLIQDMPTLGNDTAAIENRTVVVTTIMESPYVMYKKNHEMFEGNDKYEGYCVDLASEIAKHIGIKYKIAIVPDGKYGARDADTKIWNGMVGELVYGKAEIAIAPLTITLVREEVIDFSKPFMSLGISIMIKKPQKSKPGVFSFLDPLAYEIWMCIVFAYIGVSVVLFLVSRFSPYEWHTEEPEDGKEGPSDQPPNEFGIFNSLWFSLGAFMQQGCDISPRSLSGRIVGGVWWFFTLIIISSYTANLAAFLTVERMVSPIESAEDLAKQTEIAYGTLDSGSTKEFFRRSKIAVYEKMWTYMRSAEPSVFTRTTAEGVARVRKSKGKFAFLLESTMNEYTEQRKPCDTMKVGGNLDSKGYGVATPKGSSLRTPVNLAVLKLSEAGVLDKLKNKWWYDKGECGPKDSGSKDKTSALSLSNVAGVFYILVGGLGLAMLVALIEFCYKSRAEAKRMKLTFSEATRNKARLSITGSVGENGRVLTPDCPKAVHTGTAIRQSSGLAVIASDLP
# Description: Cell Culture and Transfection. Human embryonic kidney cells expressing T-antigen, clone 17 (HEK293-T/17) (CRL-11268) were cultured at 37° C. with 5% CO2 in DMEM, including 100 μg/mL penicillin, 100 μg/mL streptomycin, and 10% heat-inactivated fetal bovine serum. Cells were split twice per week. For transfection, HEK293-T/17 cells were plated at 3×10^4 cells/cm^2 for pharmacology experiments and 5×10^3 cells/cm^2 for physiology experiments in fresh medium 24 h prior to transfection. Cells were transfected with AMPA or KA receptor plasmid cDNAs using Mirus Trans-IT transfection reagent (Minus Bio Corporation, Madison, Wis.) at a ratio of 1 μg cDNA: 3 μL Trans-1T reagent and maintained in transfection medium overnight followed by a media change the next day. Transfected cells were maintained in this medium until the experiment was conducted (48-72 h total post transfection).
# Electrophysiology. For analysis of recombinant receptors, HEK293-T/17 cells were co-transfected with 0.2 μg of iGluR cDNA and 0.05 μg of eGFP. For heterologous GluA1/GluA2 receptors, the GluA1:GluA2 cDNA ratio was 1:6. Two to three days post-transfection, eGFP-expressing cells were lifted from the cover slip and voltage clamped in whole cell mode. The internal solution contained (in mM) 30 CsF, 110 CsCl, 10 HEPES, 4 NaCl, 5 EGTA and 0.5 CaCl2 (pH 7.3), while the extracellular solution contained (in mM) 140 NaCl, 10 glucose, 10 Cs-HEPES, 3 KCl, 2 CaCl2 and 1 MgCl2 (pH 7.3). Borosilicate patch electrodes were pulled and fire polished to 2-3 MO resistance. Lifted cells were maintained in a laminar stream of extracellular solution from a triple-barreled flow pipe, which was rapidly translated using a piezoceramic bimorph for fast application of glutamate or kainate alone or in combination with various antagonists (the 10-90% rise time of glutamate-evoked currents was ˜1 ms). IKM compounds were applied for three minutes with analysis performed on the final one minute of drug application.
# Statistical analysis. At least three separate experiments were performed for each assay. For data involving three or more groups, a one-way analysis of variance (ANOVA) was performed with a Tukey-Kramer post hoc test for comparison amongst the groups. For data involving two groups, an unpaired student's t-test was performed; if the standard deviations between the two groups were statistically significant, a Welsh correction was added. If the data involving three or more groups or data involving two groups where multiple treatments were performed on the same sample, a repeated measures ANOVA and paired t-test were used, respectively, for analysis of significance. Dose-inhibition response curves were fitted, with the maximum value constrained to 100 and the minimum value constrained to values greater than or equal to zero, using the following equation in order to calculate the IC50 values: Response=minimum+(maximum−minimum)/(1+(IC50^hill slope/dose^hillslope)) All calculations for statistical analysis were carried out with Graphpad Prism4 software (La Jolla, Calif.). Data are presented as mean±S.E.M. with statistical significance set at p<0.05.
# [5] = tested on: cultured hippocampal neurons; assay: Whole-cell current elicited in cultured hippocampal neurons; type: cell-based; conditions: 30 μM; GABAA and NMDA receptor antagonists present
# Description: Experiments involving primary hippocampal neurons were carried out as described previously (Vivithanaporn et al., 2007). Dissociated neurons were cultured from E18 prenatal hippocampi and were used for analysis from between 17 and 28 days in vitro. The extracellular solution was the same as used for recombinant receptor analysis, while the internal solution for voltage clamp recordings contained (in mM) 95 CsF, 25 CsCl, 10 Cs-HEPES, 10 EGTA, 2 NaCl, 2 Mg-ATP, 10 QX-314, 5 TEA. and 5 4-AP (pH 7.3) and the internal solution for current clamp recordings contained (in mM) 120 KMeSO4, 5 KCl, 5 NaCl, 1 MgCl2, 11 Na-HEPES, 10 phosphocreatine, 4 Na-ATP, and 0.3 Na-GTP (pH 7.0). Borosilicate patch electrodes were pulled and fire polished to 3-5 MΩ resistance. Both whole cell current clamp and voltage clamp recordings were performed using an Axopatch 200B amplifier (MDS, Sunnyvale, Calif.) and filtered at 20 kHz. […] In vitro status epilepticus (SE) was induced as described previously (Deshpande et al., 2007; Pal et al., 1999) and action potentials were recorded in current clamp mode. […] After recording a basal control period, IKM compounds were applied for five minutes (10 minutes for in vitro SE experiments) and changes in excitatory post-synaptic current (EPSC) charge transfer or action potential (AP) frequency were analyzed during the last two minutes of IKM application. […]
# [6] = tested on: primary hippocampal neurons; assay: In vitro model of status epilepticus (Mg2+ removal, 2 μM glycine), action potential firing in hippocampal neurons; type: cell-based; conditions: 1 μM; SE 2.0±0.3 Hz
# Description: as §1
# Several AMPA receptor selective antagonists reduce neuronal hyperactivity in both acute brain slice preparations and in in vitro models of epilepsy (Grasso et al., 1999; Szabados et al., 2001). […] We therefore tested the efficacy of IKM-159 in reducing the hyperactive neuronal phenotype in dissociated hippocampal neurons using an in vitro model of status epilepticus (SE) (Deshpande et al., 2007; Pal et al., 1999). […]
# [7] = tested on: primary hippocampal neurons; assay: Spontaneous action potential firing, current clamp, cultured hippocampal neurons; type: cell-based; conditions: 20 μM
# Description: as §1
# Effects of IKM-159 on neuronal excitability. […] To determine if altered neuronal excitability could contribute to this behavioral phenotype, we examined the effect of IKM-86 and IKM-159 on action potential firing in cultured hippocampal neurons. Spontaneous action potentials were recorded in current-clamp mode before, during and after application of 20 μM IKM-86 and IKM-159. […]
Compound,behavioral phenotype in mice [2],reduction from control charge transfer [3] [%],charge transfer during bursts of AMPA receptor-mediated synaptic events as a percent of the charge transfer during the control period [3] [%],remaining activity at 30 µM [4] [%],inhibition at 30 µM [4] [%],other results
CC1=NN=C(c2ccc(N)cc2)c2cc3c(cc2C1)OCO3 [GYKI 52466],,,,,,concentration range inhibiting AMPA receptors [1]: low micromolar range
O=C(O)C[C@@]12O[C@H]3C=CCN[C@H]3C1C(=O)N[C@H]2C(=O)O (stereo partly drawn) [IKM-27],hypoactive phenotypes similar to cataleptic states,31±9,70±9,80 ± 6,20 ± 6,
O=C(O)C[C@@]12O[C@H]3CCCO[C@H]3C1CN[C@H]2C(=O)O (stereo partly drawn) [IKM-110],varying degrees of hyperactivity,34±12,66±12,86 ± 2,14 ± 2,
O=C(O)C[C@@]12O[C@H]3[C@H](O)[C@H](O)CCO[C@H]3C1CN[C@H]2C(=O)O (stereo partly drawn) [IKM-107],varying degrees of hyperactivity,39±12,62±12,95 ± 2,5 ± 2,whole-cell current elicited [5]: 47±11 pA
"N#Cc1cc2c(cc1[N+](=O)[O-])=NC(=O)C(=O)N=2 [CNQX, 6-cyano-7-nitroquinoxaline-2,3-dione, reference compound]",,,,,,AP firing frequency in SE condition with compound [6]: 1.2±0.4 Hz
CNC(=O)N1N=C(c2ccc(N)cc2)c2cc3c(cc2CC1C)OCO3 (stereo not drawn) [GYKI 53655],,,,,,concentration range inhibiting AMPA receptors [1]: low micromolar range
O=C(O)C[C@@]12O[C@H]3CCCCO[C@H]3C1CN[C@H]2C(=O)O (stereo partly drawn) [IKM-98],varying degrees of hyperactivity,11±14,89±14,88 ± 2,12 ± 2,whole-cell current elicited [5]: 380±160 pA
Cc1cc(-c2ccc(/N=N/c3ccc4c(S(=O)(=O)[O-])cc(S(=O)(=O)[O-])c(N)c4c3O)c(C)c2)ccc1/N=N/c1ccc2c(S(=O)(=O)[O-])cc(S(=O)(=O)[O-])c(N)c2c1O.[Na+].[Na+].[Na+].[Na+] [EB],,,,,,"IC50 ([1]; non-competitive antagonist, Keller et al., 1993, Weigand et al., 1998): high nanomolar-low micromolar range"
O=C(O)C[C@@]12O[C@H]3[C@H](O)[C@H](O)CO[C@H]3C1CN[C@H]2C(=O)O (stereo partly drawn) [IKM-86],hypoactive phenotypes similar to cataleptic states; also recorded: marked hypoactivity and immobility,42±8,58±8,81 ± 2,19 ± 2,persistence of reduction in action potential firing frequency after removal of compound [7]: prolonged; action potential firing frequency in presence of compound ([7]; basal (spontaneous) firing): 0.9±0.3 Hz
